This note sets out measurements from a melting point compilation (Tetko et al.; mined from patent text by program, amines drawn as free bases though some values may be those of a salt).

By melting point is commonly meant the temperature, or range, at which the solid turns liquid.

`CC(C)(C)NCC(O)c1ccc(N)c(F)c1F` (configuration not stated) displayed a melting point of 133 to 135 °C. With `Cc1ccc2c(N)c(C#N)sc2n1` the figure was 241 to 242 °C; with `CCOC(=O)c1nnc(-c2ccc(Cl)cc2)o1`, 117 to 118 °C.

The molecule `CC(C)(C)N1CC(COc2cccc3c2SCCC3)OC1=O` (configuration not stated) registered a melting point of 90 °C.

For `CCOC(=O)c1c[nH]c2c(OC)ccc(-c3ccccc3)c2c1=O`, the melting point is 234 to 237 °C. For `NC(=O)C1CCN(c2cccc3c2OCCO3)CC1` the value was 194 °C; for `O=C1NC(=S)NC1=Cc1cc(O)c(O)c(Cl)c1`, 303 to 304 °C; for `CN(CC1CCN(CC2COc3ccccc3O2)CC1)c1nc2ccccc2s1` (configuration not stated), 125 °C. `Cn1ncc2c(C(F)F)cc(-c3ccc(N)c(C#N)c3)nc21` registered a melting point of 251 °C.

As for `OCc1nccc(N2CCCCC2)n1`, the melting point is 92 to 93 °C. Regarding `CCOC(=O)Nc1cc(OCC)c(Br)cc1F`, the melting point lay in the range of 92.5 to 95 °C.

As for `Cc1ccc(N=Cc2ccc(-c3ccccc3)cc2)cc1`, the melting point was 137 to 139 °C. With `C[C@@H]1OC=C[C@H](NC(=O)C(F)(F)F)[C@@]1(O)OC(=O)C(F)(F)F` the figure was 73 to 74 °C; with `OC(CCc1cccnc1)CSc1ccc(C2CCCCC2)cc1` (configuration not stated), 49 °C. For `O=C(NCCCn1cnc(-c2ccccc2)c1)c1ccc(Br)cc1` the value was 132 to 135 °C; for `COC(=O)C1=NNC(C)=C(C(=O)OC)C1c1ccccc1C(F)(F)F` (configuration not stated), 205 °C; for `COc1cccc2c(O)c(CO)cnc12`, greater than 350 °C. For `C=CCNc1c([N+](=O)[O-])ccc(Oc2ccc(C#N)cc2)c1Cl` the value was 85 to 87 °C; for `Nc1cccc(CC(=O)NCc2ccccc2Br)c1`, 110 to 112 °C. For the molecule `CCOC(C)=C1SC(=S)N(c2ccc(Cl)cc2)C1=O`, the melting point was in the range of 168 to 171 °C.

`Nc1ncc(Br)cc1C(=O)O` returned a melting point of 272 °C.

For the molecule `CC(=O)c1ccc(-c2cccc(C(F)(F)F)c2)o1`, the melting point fell in the range of 105 to 109 °C. The molecule `c1ccc(-c2ncc(-c3cnc(-c4ccccc4)[nH]3)cn2)cc1` returned a melting point of 253 °C. In turn, `Brc1ccc(-c2c(-c3ccccc3)c(-c3ccccc3)c(-c3ccccc3)c(-c3ccccc3)c2-c2ccc(Br)cc2)cc1` showed a melting point of 245 °C. With `COc1ccc(C(O)(CC(=O)N2CCOCC2)c2ccc(Cl)cc2)cc1OC` (configuration not stated) the figure was 150 °C; with `NS(=O)(=O)c1cc(C(=O)O)cc(SCc2ccsc2)c1Oc1ccccc1`, 222 to 224 °C. For `O=C(O)CNC(=O)c1ccc(OCc2ccccc2)cc1OCc1ccccc1` the value was 168 to 169 °C. On to `CCc1cccc(CC)c1NC(=O)NC(c1ccccc1)c1ccccc1`, for which the melting point fell in the range of 238 to 240 °C. With `CCCOc1ccc(S(=O)(=O)N2CCNCC2)cc1-c1cc2c(=O)n(C)c(=O)n(CCC)c2[nH]1` the figure was 237 °C. For `O=C(C(=O)c1cccnc1)c1ccccc1` the value was 56 to 57 °C.

Molecule `Cc1noc(NS(=O)(=O)c2ccccc2-c2ccccc2)c1C` came in with a melting point of 154 to 155 °C. The molecule `CCCCCCOc1cc2c(cc1/C(C)=C/C=C/C(C)=C/C(=O)O)C(C)(C)CCCS2(=O)=O` had a melting point of 164 to 165 °C. With `CCCCOC(=O)c1ccc(C(F)(F)F)cc1Cl`, the melting point worked out at 90 °C. For `COc1cc(OCc2ccccn2)c(C=CC(=O)c2ccc(S(N)(=O)=O)cc2)cc1-c1cccs1` the value was 188 to 189 °C. For `CC(=O)Nc1ccc(C#Cc2ccc(C3CC4CCCC(C3)N4C)nn2)cc1` (configuration not stated) the value was 270 to 271 °C; for `CCCCCCCCCCCC1CNc2cc(C(=O)O)ccc21` (racemic), 107 to 111 °C; for `Cn1cc(-c2nc(C(F)(F)F)c[nH]2)cn1`, 206 to 207 °C.

The molecule `O=C1C(=O)c2ccccc2C2=C1SCC1(CCN(C(=O)c3cccnc3)CC1)O2` returned a melting point of 218 to 220 °C. Regarding `Cc1cccc(NC(=O)NC2CC(c3ccccc3F)c3ccccc3N(CC(=O)NC(C)(C)C)C2=O)c1` (configuration not stated), the melting point lay in the range of 285 to 300 °C.

`Cc1noc(NS(=O)(=O)c2nccs2)c1Br` had a melting point of 175 to 177 °C. `Cc1c(NC(=O)c2ccc(OCC3CCCO3)cc2)ccc2cc(CNC3CCC(O)CC3)cnc12` (configuration not stated) registered a melting point of 155 °C.

`CC(=O)Oc1ccc(-c2ccc(C=C(Br)Br)s2)cc1` yielded a melting point of 115 to 116 °C. Take `CC(C)(O)Cn1c(CONC(=O)C2CC2)nc2c(N)nc3ccccc3c21`: the melting point is 209 to 210 °C.

Consider `CS(=O)(=O)Nc1cc2oc(NC=O)cc(=O)c2cc1Oc1ccccc1`, for which the melting point lay within 214 to 216 °C. Regarding `COc1cccc(OC2COc3ccc(OCc4ccccc4)cc3C2=O)c1` (configuration not stated), the melting point fell in the range of 98 to 100 °C. `Cc1sc(C)c2c(=O)n3cc(C#N)ccc3nc12` gave a melting point of 242 to 244 °C. For `CC(C)(C)OC(=O)Nc1nc2cc(N)ccc2[nH]1` the value was 168 °C; for `Cc1cc(SCc2ccc(OCc3ccc(C(C)(C)C)cc3)cc2)ccc1OCC(=O)O`, 135 to 137 °C. For `O=C(C=Cc1ccncc1)c1ccc([N+](=O)[O-])cc1` the value was 218 to 221 °C; for `Cc1cc(OC(=S)N(C)C)nc(C(Cl)(Cl)Cl)n1`, 81 to 83 °C.

`C/C(=C\c1ccc(OC(C)C)cc1Oc1ncc(C(F)(F)F)cc1Cl)C(=O)NS(=O)(=O)NC1CCC(C)CC1` (configuration not stated) displayed a melting point of 177 °C. In turn, `COCOc1cc(OCOC)c2c(=S)cc(C)oc2c1` had a melting point of 109 to 110 °C. With `Cc1cc(C)n(C(=O)CNS(=O)(=O)c2ccc(CC(C)C)cc2)n1` the figure was 124 °C; with `c1ccc(-c2ncc(-c3cnc(C4CCCNC4)[nH]3)cn2)cc1` (configuration not stated), 140 °C. `CCCc1nc2cc3c(cc2[nH]1)NC(=O)C3(C)C` displayed a melting point of 284 to 285 °C. With `CSC1Oc2cc3ccccc3cc2C1=O` (configuration not stated) the figure was 118 to 120 °C; with `Cn1cc(-c2cc3cccnc3[nH]2)c2cc(OC3(CO)CCC3)ccc21`, 144 to 146 °C. For `O=C(NCCO)Nc1ccccc1`, the melting point lay in the range of 120 to 122 °C. `Cc1ccc2c(c1C)OC(C(=O)O)C2` (configuration not stated) had a melting point of 182 °C. The molecule `O=C(c1cc(Cl)ccc1O)c1cc(Cl)cc([N+](=O)[O-])c1O` had a melting point of 153 °C.

As for `COc1ccc(CCN2COc3c(cccc3OC)C2)cc1`, the melting point lay within 69 to 70 °C. With `CCc1nc(/C=C\c2cn(-c3ccccc3)nc2OCc2ccc(OCc3nc(N4CCOCC4)sc3C)c(OC)c2)cs1` the figure was 76 to 78 °C; with `CNc1ccnc(Cl)c1N`, 166 to 168 °C. For `COc1ccc(Nc2nc(-c3ccc4scnc4c3)cn3ccnc23)cc1OC` the value was 179 to 181 °C; for `Cc1n[nH]cc1-c1cccc2c1nnn2-c1ccnc(NC2CCC(C(=O)N3CCC(O)CC3)CC2)n1` (configuration not stated), 190 to 195 °C. For `Nc1nc(N)c(-c2ccc(Cl)cc2Cl)c(CBr)n1` the value was greater than 270 °C; for `N#CC(c1ccccc1)c1ccc(Cl)nn1` (configuration not stated), 131 °C.

Take `Cc1ncc(CSSCc2cnc(C)c(O)c2CN(C)C)c(CN(C)C)c1O`: the melting point lay in the range of 195 to 201 °C.

As to `CNc1ccn2c(C(=O)c3ccc([N+](=O)[O-])c(OC)c3)c(C)c(C(=O)OCc3ccccc3)c2c1`, the melting point amounted to 228 °C. For `Cc1ccnc2c(Oc3ccccc3[N+](=O)[O-])cccc12` the value was 98 to 99 °C; for `O=P(c1ccccc1)(c1ccccc1)C(F)F`, 93 to 94 °C. With `CC(C)(C)C(O)(CCCOc1ccccc1)Cn1cncn1` (configuration not stated) the figure was 106 °C; with `O=C(NCc1ccc(Cl)cc1)c1cnc2c(I)cc(CC3CCOCC3)cc2c1O`, 257 to 259 °C; with `CCOC(=O)C(C=O)c1csc(NC=O)n1` (configuration not stated), 179 to 180 °C. For `COc1ccc(/C=C/CO)cc1OCc1nc(-c2ccccc2)oc1C` the value was 137 to 138 °C.

In turn, `Cc1nc2[nH]c(=O)ccc2c(C)c1C` had a melting point of 170 to 175 °C. For `COCc1cccc(-c2ccc3nc(-c4ccc(Cl)cc4)c(Cl)n3c2)c1` the value was 120 to 122 °C; for `CN(C)CCN(CCC12CC3CC(CC(C3)C1)C2)C(=O)NCCCc1ccncc1`, 104 to 106 °C.

`Cc1c(CC(=O)O)c2cc(O)ccc2n1C(=O)c1ccc(OC(F)(F)F)cc1`: the melting point is 193 to 195 °C. With `Cc1ccn2nc(S(=O)(=O)N(C(=O)c3ccccc3)c3c(Cl)cccc3Cl)nc2n1` the figure was 187 to 189 °C. With `C=CCC(C#N)(C#N)Cc1ccc(Cl)c(Cl)c1` the figure was 71.8 °C; with `CCc1nc(O)c2c(n1)c(C)nn2CC`, 192 to 194 °C; with `O=C1c2ccccc2C(=O)c2c1nc1ccc(Cl)cn21`, greater than 300 °C. Molecule `N#CCCNC(=O)c1n[nH]cc1NC(=O)c1ccccn1` displayed a melting point of 223 to 224 °C. For `COC(=O)C(C(=O)OC)C(Cc1cc(Cl)ccc1[N+](=O)[O-])c1ccc(OC)cc1` (configuration not stated), the melting point is 117 to 120 °C. For `O=C(Nc1ccc(-n2nc(C(F)(F)F)cc2C(F)(F)F)cc1)c1cc(Br)c(Br)s1` the value was 142 to 144 °C; for `O=C(CC1CC1)NC[C@H]1CN(c2ccc3c(c2)CCCc2cn[nH]c2-3)C(=O)O1`, 212 to 215 °C; for `Cc1cc(-n2ccnc2)c2cccc(OCc3c(Cl)ccc(S(=O)(=O)N4CCC[C@H]4C(=O)NCC4CCN(CCCCO)CC4)c3Cl)c2n1`, 112 °C.

As for `CN1C(=O)CN(C(=O)CN)C(c2ccccc2)c2cc(Cl)ccc21` (configuration not stated), the melting point was in the range of 158 to 160 °C. As for `CC(C)(C)n1cc(-c2ccc(N(C=O)c3ccccc3)cc2)c2cncnc21`, the melting point fell in the range of 163 to 164 °C. In turn, `Nc1ccc2c(c1)CCN(Cc1ncn[nH]1)C2` came in with a melting point of 191 to 193 °C. With `CN(C(=O)OC(C)(C)C)c1cc(OCc2ccccc2)ccc1[N+](=O)[O-]` the figure was 108 to 110 °C.
